Structures can show the parent of a compound that is named as a salt. Where two headings read alike, the source gives them in different places.
Assays:
[1] = target: human KAT II (hKAT II) enzyme (Homo sapiens, UniProt Q8N5Z0); experiment: Human KAT II Inhibition Spectra Assay; type: biochemical
Method: Human KAT II Inhibition Spectra Assay Formation of kynurenic acid (KYNA) is indirectly assessed by a decrease in light absorbance at 370 nm (OD370) as the L-kynurenine (KYN) substrate is converted by the human KAT II (hKAT II) enzyme into KYNA. An inhibitor would therefore inhibit the decrease in OD370. The protocol was performed by placing the following reagents into a Costar 384 well black plate (30 μL total assay volume/well): • 10 μL of 3× concentrated compound; • 10 μL of 3× concentrated substrate mix (BGG (Sigma G-5009); 3 mM L-Kynurenine in 150 mM Tris Acetate (Sigma K3750); 3 mM α-ketoglutaric acid in 150 mM Tris Acetate (Sigma K2010); and 210 μM pyridoxal 5-phosphate (PLP) in 150 mM Tris Acetate (Sigma 9255)); and • 10 μL of 3× concentrated enzyme (15 nM enzyme in 150 mM Tris Acetate with 0.3% bovine serum). Plates were sealed and incubated at 37° C. for 15-20 h before reading OD370 on a SpectraMax Plus plate reader. IC50s were generated by comparing the efficacy of compounds across a concentration range to inhibit a reduction in the OD370 value relative to assay wells with DMSO added in place of concentrated compound. Biological data for the Examples may be found Tables 1 and 2.

[2] = test system: human hepatocytes; experiment: Human Hepatocyte Assay (HHEP); type: in vitro ADME; conditions: 1 μM test compound, 0.5 million viable cells/mL
[3] = target: human KATII enzyme (Homo sapiens, UniProt Q8N5Z0); experiment: KATII Kinetic Assay (kinact/KI determination); type: biochemical; conditions: read-out: hKATII kinact/KI
Method: The compounds of the present invention are irreversible inhibitors of KATII. Potency of irreversible inhibitors is best characterized by kinact/KI (See Copeland, R. A.; “Evaluation of Enzyme Inhibitors in Drug Discovery,” Wiley, 2005).
Test compounds were dissolved in 100% DMSO and diluted to the required concentrations in 100% DMSO. An additional aqueous dilution was made so that the compound at 3× final concentration was 1.0% DMSO in the assay specific buffer. Compounds were tested at 11 concentrations. Final DMSO concentrations in the assay plate were equal to 0.33%.
KATII enzyme activity was followed by measuring the loss of absorbance of the L-KYN substrate at an absorbance wavelength of 370 nm. The KATII assays were run in a 384 well format at a final volume of 30 μL using 150 mM Tris Acetate buffer (pH7.0), 1 mM L-KYN,1 mM α-ketoglutaric acid, 70 μM PLP, 0.1% BGG and either 30 nM human KATII enzyme or 5 nM rat KATII enzyme KATII enzyme. Compound was diluted in 100% DMSO and spotted prior to the addition of the other reagents. Enzyme was always added last. Assay plates were sealed around the edges with tape and immediately read on a SpectraMax plate reader at an absorbance wavelength of 370 nm. The SpectraMax plate reader was set up to read every 5 min for 16 hours.
The following steps are taken to ensure consistent production of kinetic read data: • 1. A 10 μL aliquot of the compound dilutions (described above in compound preparation) was added to the assay plate by hand followed by a quick spin to ensure compound was collected at bottom of well. • 2. A 10 μL aliquot of substrate mix containing the L-KYN, a-ketoglutaric acid and PLP was then added to the assay plate via a Multidrop instrument. • 3. Finally, a 10 μL aliquot of a 3× concentration of enzyme stock soluton was added last to initiate the reaction via a Multidrop instrument. • 4. The microplate lid was placed onto the assay plate and taped to seal in humidity, and the assay plate was put into the SpectraMax reader. A quick vibration on the plate platform was done to ensure mixing, and the absorbance was read (wavelength of 370 nm) every 5 min over 16 h at room temperature. Determination of Potencies (kinact/Kl Values)
The direct substrate absorbance loss assay described above was performed for the determination of potencies (kinact/Kl values). The overall potency, kinact/K1 values, were determined using the general approach described by M. Mileni et al., Proc. Natl. Acad. Sci. USA 2008, 105 12820-12824 and K. Ahn et al. Chem. Biol. 2009, 16, 411-420. Reaction progress curves (decrease in A370 nm with time) were obtained in the presence of eleven concentrations of inhibitor with top dose at […]. A null inhibitor control is always included. Absorbance read data were collected for 16 hours at 5 minute intervals. […] Each progress curve was fit to a one phase exponential decay model (equation 1) to determine kobserved (kobs) values at each inhibitor concentration, where At is absorbance at time t, A0 is the absorbance at t=infinite, A1 is a total absorbance change (the absorbance difference between t=0 and t=infinite), and kobs is the first order rate constant for enzyme inactivation. […] When [I]<<K1, equation 2 is simplified to equation 3, where the kinact/Kl is calculated from the slope, kinact/[Kl(1+[S]/Km)], which is obtained from the kobs vs [I] linear regression fit. […]

[4] = Pharmacokinetics Studies in Dog; type: in vivo; parameters: AUC/dose: unit not given beside the values; conditions: dogs; for AUC / C0 / clearance / half-life / Cmax: male, beagle, dog, plasma
Method: Pharmacokinetics Studies in Dog Test substances (Examples 2-3) were administered by oral gavage or IV administration to groups of two dogs. The two male dogs were beagles obtained from Marshal Farms, weighing from about 9 to about 12 kg at start of treatment and ranging in age between approximately 4 to approximately 6 years. Blood samples were taken times of 0.25, 0.5, 1, 2, 4, 7, and 24 h after administration and submitted to analysis for the drug substance using an LC-MS-MS assay. Pharmacokinetic parameters derived from the plasma analytical data were determined using Watson 7.2.003.

[5] = Reactive Metabolite Assay; type: in vitro ADME
Method: [formula] Reactive Metabolite Assay Protocol Metabolite activity in Table 2 is measured using a reactive metabolite assay protocol as described in Reactive Metabolite assay protocol: See J. R. Soglia et al., J. Pharm. Biomed. Anal. 2004, 36, 105-116.

[6] = OD370 readout, 37° C., 15-20 h incubation, read-out: hKATII IC50
[7] = IV administration, dose = 0.5 mg/kg
[8] = oral administration, dose 5 mg/kg (Ex 3, 2), 2 mg/kg (Ex 5)

human KAT II (hKAT II) enzyme, sequence (Q8N5Z0 30-425): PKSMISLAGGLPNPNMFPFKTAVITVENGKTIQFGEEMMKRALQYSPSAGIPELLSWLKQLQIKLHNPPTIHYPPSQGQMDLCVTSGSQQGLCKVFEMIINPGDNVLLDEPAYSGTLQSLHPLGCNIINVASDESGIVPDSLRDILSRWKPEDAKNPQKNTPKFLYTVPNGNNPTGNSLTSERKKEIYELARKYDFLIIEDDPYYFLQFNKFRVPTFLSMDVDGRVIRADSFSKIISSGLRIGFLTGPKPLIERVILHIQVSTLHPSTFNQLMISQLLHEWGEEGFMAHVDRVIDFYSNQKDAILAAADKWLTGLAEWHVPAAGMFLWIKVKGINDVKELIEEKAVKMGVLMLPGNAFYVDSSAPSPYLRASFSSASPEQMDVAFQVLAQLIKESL
human KATII enzyme, sequence (Q8N5Z0 30-425): as above

| Compound | IC50 [1, 6] [µM] | HHEP CLint, app [2] [μL/min/million] | kinact/KI [3] [M⁻¹ s⁻¹] | AUC/dose [4, 7] | AUC/dose [4, 8] | Cmax/dose [4, 8] | AUC [4, 7] [µg·h/mL] | C0 [4, 7] [µg/mL] | clearance [4, 7] [L/h/kg] | half-life [4, 7] [min] | AUC [4, 8] [µg·h/mL] | Cmax [4, 8] [µg/mL] | half-life [4, 8] [min] | Reactive Metabolite Formation [5] | kinact/KI ([3]; 30 nM human KATII enzyme, room temperature) [M⁻¹ s⁻¹] | IC50 [1] [µM] |
| --- | --- | --- | --- | --- | --- | --- | --- | --- | --- | --- | --- | --- | --- | --- | --- | --- |
| N#Cc1ccc2c(c1)N(O)C(=O)[C@@H](N)C2 [Example 1, (3S)-3-Amino-1-hydroxy-2-oxo-1,2,3,4-tetrahydroquinoline-7-carbonitrile, HCl Salt] | 0.019 | 24.8 | 46200 | – | – | – | – | – | – | – | – | – | – | – | – | – |
| COC[C@H](C)Oc1ccc2c(c1)N(O)C(=O)[C@@H](N)C2 [Example 2, (3S)-3-Amino-1-hydroxy-7-[(1S)-2-methoxy-1-methylethoxy]-3,4-dihydroquinolin-2(1H)-one, HCl Salt] | 0.018 | 19.8 | 25100 | 370 | 39 | 46 | 0.185 | 0.352 | 2.69 | 30 | 0.195 | 0.229 | 137 | No | – | – |
| COCCOc1ccc2c(c1)N(O)C(=O)[C@@H](N)C2 [Example 3, (3S)-3-Amino-1-hydroxy-7-(2-methoxyethoxy)-3,4-dihydroquinolin-2(1H)-one, HCl Salt] | 0.022 | 30.1 | – | 388 | 31.2 | 39.6 | 0.194 | 0.446 | 2.6 | 54 | 0.156 | 0.198 | 63 | No | 22300 | – |
| N[C@H]1Cc2ccccc2N(O)C1=O [Example 4, (3S)-3-Amino-1-hydroxy-3,4-dihydroquinolin-2(1H)-one] | 0.027 | 39.6 | 21500 | – | – | – | – | – | – | – | – | – | – | – | – | – |
| CC(C)Oc1ccc2c(c1)N(O)C(=O)[C@@H](N)C2 [Example 5, (3S)-3-Amino-1-hydroxy-7-isopropoxy-3,4-dihydroquinolin-2(1H)-one, HCl Salt] | – | 44.7 | 17100 | 436 | 9.3 | 9.8 | 0.218 | 0.265 | 2.32 | 36 | 0.0186 | 0.0196 | 27.6 | Yes | – | 0.032 |
| N#Cc1cccc2c1N(O)C(=O)C(N)C2 (stereo not shown) [Example 6, 3-Amino-1-hydroxy-2-oxo-1,2,3,4-tetrahydroquinoline-8-carbonitrile, HCl Salt] | 0.03 | – | – | – | – | – | – | – | – | – | – | – | – | – | – | – |

— patent US8487104B2, “KAT II inhibitors” (Pfizer Inc., priority 2010, dated 2013)
